Source: PubChem BioAssay AID328 (DTP/NCI, 2004)
Several values for one entry are separate records, joined by “and”; a condition that tells them apart may be missing. Identical values can stand only once. Inconclusive results and toxic doses are left out. The calls were made as follows: active = survival T/C of 150% or more; inactive = T/C below 125% in these data.

Tested on: BDF1 mice, P388 leukemia ip, median survival T/C
Assay: NCI In Vivo Anticancer Drug Screen. Data for tumor model P388 Leukemia (intraperitoneal) in B6D2F1 (BDF1) mice
Details: endpoint: median survival time, higher = longer survival
Procedure, shortened: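 Survival ratio, drug arm over vehicle arm, in mice with a transplanted tumour.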

[1] = dose: 50.0 mg/kg/injection, schedule: Q01DX009 (ip), vehicle: saline with Tween-80
[2] = dose: 100.0 mg/kg/injection, schedule: Q01DX009 (ip), vehicle: saline with Tween-80
[3] = dose: 200.0 mg/kg/injection, schedule: Q01DX009 (ip), vehicle: saline with Tween-80
[4] = dose: 25.0 mg/kg/injection, schedule: Q04DX003 (ip), vehicle: Klucel (hydroxypropylcellulose) (HPC)
[5] = dose: 50.0 mg/kg/injection, schedule: Q04DX003 (ip), vehicle: Klucel (hydroxypropylcellulose) (HPC)
[6] = dose: 50.0 mg/kg/injection, schedule: Q01DX009 (ip), vehicle: Klucel (hydroxypropylcellulose) (HPC)
[7] = dose: 100.0 mg/kg/injection, schedule: Q01DX009 (ip), vehicle: Klucel (hydroxypropylcellulose) (HPC)
[8] = dose: 100.0 mg/kg/injection, schedule: Q04DX003 (ip), vehicle: Klucel (hydroxypropylcellulose) (HPC)
[9] = dose: 200.0 mg/kg/injection, schedule: Q01DX009 (ip), vehicle: Klucel (hydroxypropylcellulose) (HPC)
[10] = dose: 200.0 mg/kg/injection, schedule: Q04DX003 (ip), vehicle: Klucel (hydroxypropylcellulose) (HPC)
[11] = dose: 400.0 mg/kg/injection, schedule: Q01DX009 (ip), vehicle: saline with Tween-80

Measured: T/C

O=c1cc(O)[nH]c(=S)[nH]1
inactive: [1] 103 % of control | [2] 99 % of control | [3] 88 % of control

O=C1NCCN1c1cccc([N+](=O)[O-])c1
inactive: [4] 100 % of control | [5] 100 % of control

CCCCCCCCC(=O)N1CC1
inactive: [6] 95 % of control | [7] 118 % of control | [8] 109 % of control | [9] 86 % of control | [10] 113 % of control

CCCCCCCCCCCCCCCCCCNC(=O)Nc1ccc(C)cc1C
inactive: dose: 100.0 mg/kg/injection, schedule: Q04DX003 (ip), vehicle: saline + alcohol 91 % of control | dose: 200.0 mg/kg/injection, schedule: Q04DX003 (ip), vehicle: saline + alcohol 108 % of control | dose: 400.0 mg/kg/injection, schedule: Q04DX003 (ip), vehicle: saline + alcohol 108 % of control

OC(Cc1cc(CC(O)(C(F)(F)F)C(F)(F)F)ncn1)(C(F)(F)F)C(F)(F)F
inactive: [2] 95 % of control | [3] 90 % of control

COc1ccc(C(CC(=O)c2ccc3c(c2)OCO3)c2c(O)c3ccccc3oc2=O)cc1OC (stereo not drawn)
inactive: dose: 25.0 mg/kg/injection, schedule: Q01DX009 (ip), vehicle: saline with Tween-80 89 % of control | [1] 91 % of control

CCCCNS(=O)(=O)c1ccc(OC)c(N)c1
inactive: [8] 95 % of control | [10] 100 % of control | dose: 400.0 mg/kg/injection, schedule: Q04DX003 (ip), vehicle: Klucel (hydroxypropylcellulose) (HPC) 100 % of control

CC1(C)/C(=C/c2ccccc2)C(=O)c2ccccc21
inactive: dose: 12.5 mg/kg/injection, schedule: Q04DX003 (ip), vehicle: saline 107 % of control | dose: 25.0 mg/kg/injection, schedule: Q04DX003 (ip), vehicle: saline 118 % of control | dose: 50.0 mg/kg/injection, schedule: Q04DX003 (ip), vehicle: saline 91 % of control | dose: 100.0 mg/kg/injection, schedule: Q04DX003 (ip), vehicle: saline 103 % of control and 121 % of control | dose: 200.0 mg/kg/injection, schedule: Q04DX003 (ip), vehicle: saline 102 % of control and 112 % of control | dose: 400.0 mg/kg/injection, schedule: Q04DX003 (ip), vehicle: saline 110 % of control

CC(=O)Nc1ccc(S(=O)(=O)NC(N)=O)cc1
inactive: [2] 105 % of control | [11] 98 % of control

COC(=O)c1cc([N+](=O)[O-])c(Cl)c([N+](=O)[O-])c1
inactive: dose: 6.25 mg/kg/injection, schedule: Q01DX009 (ip), vehicle: Klucel (hydroxypropylcellulose) (HPC) 109 % of control | dose: 12.5 mg/kg/injection, schedule: Q01DX009 (ip), vehicle: Klucel (hydroxypropylcellulose) (HPC) 104 % of control | dose: 25.0 mg/kg/injection, schedule: Q01DX009 (ip), vehicle: Klucel (hydroxypropylcellulose) (HPC) 100 % of control | [4] 100 % of control | [5] 105 % of control

CCCCCCCCCCC(C(=O)O)C1(C(=O)O)CCC(=O)O1 (stereo not drawn)
inactive: [6] 107 % of control | [7] 107 % of control | [9] 98 % of control

COc1ccc(OC)c(C(C)(O)CC(=O)O)c1 (stereo not drawn)
inactive: [1] 89 % of control | [2] 107 % of control | dose: 100.0 mg/kg/injection, schedule: Q04DX003 (ip), vehicle: saline with Tween-80 112 % of control | [3] 105 % of control | dose: 200.0 mg/kg/injection, schedule: Q04DX003 (ip), vehicle: saline with Tween-80 103 % of control | [11] 90 % of control | dose: 400.0 mg/kg/injection, schedule: Q04DX003 (ip), vehicle: saline with Tween-80 117 % of control

Cc1cccc(N2CCNCC2)c1
inactive: dose: 6.25 mg/kg/injection, schedule: Q04DX003 (ip), vehicle: saline sonified 95 % of control | dose: 12.5 mg/kg/injection, schedule: Q04DX003 (ip), vehicle: saline sonified 100 % of control | dose: 25.0 mg/kg/injection, schedule: Q04DX003 (ip), vehicle: saline sonified 109 % of control

CCOC(=O)CN1C(=O)S/C(=C/c2ccc([N+](=O)[O-])o2)C1=O
inactive: dose: 100.0 mg/kg/injection, schedule: Q04DX002 (ip), vehicle: saline with Tween-80 94 % of control | dose: 200.0 mg/kg/injection, schedule: Q04DX002 (ip), vehicle: saline with Tween-80 105 % of control
